Where two headings read alike, the source gives them in different places.
Columns and labels:
[1] = test system: patients with aggressive MS; conditions: eight patients
Procedure: Open-label trial of patients with aggressive MS were given an up-front regimen of 50 mg/kg/d for four consecutive days. Enrolled patients had aggressive MS as defined by 2 or more total gadolinium enhancing lesions on each of two pretreatment MRI scans; at least one clinical exacerbation in the last year despite being on conventional MS therapy; and sustained increase of >1.0 on the EDSS in the preceding year.
All patients developed transient severe neutropenia, an expected consequence, followed by immune reconstitution in 10-17 days.

SAA patients [2] = conditions: 10 SAA patients
[3] = test system: previously untreated SAA patients
SAA patients [4] = conditions: for mortality within 6 months after treatment / patients achieving remission: 38 newly diagnosed patients
Source text: Response was defined as ANC >1000/d1 and transfusion independence without growth factor support for >3 months. Relapse was defined as no longer meeting criteria for response. Development of paroxysmal nocturnal hemoglobinuria was monitored by flow cytometry.
The median age of the newly diagnosed patients was 40 (range 2-68) years.

[5] = test system: patients with severe refractory autoimmune disorders
[6] = test system: patients with moderate to severe systemic lupus erythematosus (SLE)
[7] = test system: patient with paraneoplastic pemphigus
[8] = test system: patient with pemphigus vulgaris
[9] = test system: patients with refractory autoimmune hemolytic anemia
Source text: The median hemoglobin at the time of treatment was 6.7 (range; 5-10) g/dl and 8 of the 9 patients were dependent on erythrocyte transfusions.

[10] = test system: HLA-specific antibodies in SAA patients
[11] = test system: patients with myasthenia gravis; conditions: 7 patients refractory to conventional immunosuppressive therapy
[12] = 50 mg/kg/d for four consecutive days
[13] = after the last dose of cyclophosphamide

Procedure for patients with HAA: Serology/PCR for HAV, HBV, HCV, EBV, and CMV were negative. All patients met criteria for very severe aplastic anemia pretreatment: bone marrow cellularity <25%, ANC <200 μL, platelet count <20,000/μL, absolute reticulocyte count <60,000/μL. Infection prophylaxis consisted of trimethoprim/sulfamethoxazole, G-CSF, and fluconazole.

O=P1(N(CCCl)CCCl)NCCCO1 (centres unmarked) [high-dose cyclophosphamide, cyclophosphamide]
brain atrophy [1]: slowed in several patients | clinical exacerbation following treatment [1]: No patient | improvement in the MSFC following treatment [1]: most patients | reduction in EDSS following treatment [1]: most patients | reduction or elimination of new and enhancing lesions on the MRI [1]: All patients | time to immune reconstitution after neutropenia [1, 12]: 10 to 17 days | transient severe neutropenia [1, 12]: All patients | unexpected grade 3 or 4 adverse event [1, 12]: no patients | complete remission (normocellular bone marrow, hemoglobin >13.0 g/dl, neutrophil count >[…]10^9/L, platelet count greater than 125×10^9/L) (SAA patients [2]): seven of ten | median time to a neutrophil count of 500 μL ([3]; 19 patients): 49 days | probability of achieving treatment-free remission ([3]; 19 patients, 95% CI 51-91%): 73% | probability of survival ([3]; at 24 months, 19 patients, 95% CI 59-95%): 84% | relapse or secondary clonal disorders ([3]; responding patients): No responding patients | PNH clone (SAA patients [4]; 12 patients with a PNH population): regressing in all 12 patients | durable remission (SAA patients [4]; 12 patients with a PNH population 0.5-40% of granulocytes, p=0.039): all 12 | patients in remission (SAA patients [4]; 17 patients who failed immunosuppressive therapy): nine | additional patient died from bacterial sepsis (SAA patients [4]; 18 months after treatment): 1 patient | mortality within 6 months after treatment (SAA patients [4]): 10.5% | patients achieving remission (SAA patients [4]; 95% CI 58-85%): 74% | mortality within 6 months after treatment (SAA patients [4]; all with vSAA): 4 patients | patients achieving remission (SAA patients [4]; most complete): 28 patients | patients in remission (SAA patients [4]; SAA (not very severe) subgroup of 23): 20 patients | patients surviving in remission (SAA patients [4]; eight patients with a severe infection at beginning of treatment): 5 patients | median time to ANC of 500 (SAA patients [4]; newly diagnosed patients): 50 days | median time to last platelet transfusion (SAA patients [4]; newly diagnosed patients): 99 days | median time to last red cell transfusion (SAA patients [4]; newly diagnosed patients): 181 days | patients relapsed (SAA patients [4]; newly diagnosed series): Two patients | progression to PNH or MDS (SAA patients [4]; newly diagnosed series): No patient | actuarial survival (SAA patients [4]; newly diagnosed, 95% CI 72-95%): 86% | patients surviving (SAA patients [4]; newly diagnosed, median follow-up 41 (range 6-111) months): 33/38 | patients alive (SAA patients [4]; patients who failed immunosuppressive therapy): Ten of the 17 | patients in remission (SAA patients [4]; vSAA subgroup of 15): 10 patients | duration of remission after treatment without further immune suppression (patients with HAA; 4 patients with hematopoietic responses): up to 6 years | autoimmune hepatitis (AIH) status (patients with HAA; Patient 2): remains in remission | hematologic response (patients with HAA; Patient 5, proceeded to unrelated BMT after 5 months): no hematopoietic response | hematopoietic recovery (patients with HAA; five patients, 50 mg/kg/day IV×4 days plus mesna): Four patients | durable remissions in hepatitis-associated aplastic anemia (patients with HAA; follow-up 1-6 years): 4 of 5 | median time to ANC >500/μL (patients with HAA; range 44-369): 51 days | median time to transfusion independence for platelets (patients with HAA; range 48-679): 160 days | median time to transfusion independence for erythrocytes (patients with HAA; range 57-679): 109 days | death from treatment failure (patients with HAA; series of 5 patients): one death | median time to a neutrophil count of 500 per μL [5, 13]: 17 days | median time to platelet transfusion independence [5, 13]: 16 days | complete remission ([5]; eight patients): five | marked clinical improvement ([5]; eight patients): Seven patients | partial remission ([5]; eight patients): 2 | deaths or fungal infections ([6]; 14 patients): no deaths or fungal infections | durable complete responses ([6]; 14 patients): 5 | median time to a neutrophil count of 500 μl ([6]; after the last dose, range 11 to 22 days, 14 patients): 14 days | improvement in Physicians Global Assessment, mean difference ([6]; p<0.0001): 1.3 | improvement in prednisone dosage, mean difference ([6]; p=0.01): 12.8 mg | improvement in systemic lupus erythematosus disease activity index, mean difference ([6]; p=0.042): 3.5 | median day to last platelet transfusion ([6]; range 0 to 23): 16 days | median transfusions of packed red blood cells required ([6]; range 2 to 5): 2 transfusions | pathogenic autoantibodies specific for the disease ([7]; after treatment): undetectable | remission ([7]; in vivo): durable complete remissions | need for blood products ([7]; one patient): did not require blood products | recovery to a neutrophil count of greater than 500 per μL ([7]; one patient): ≤ 15 days | pathogenic autoantibodies specific for the disease ([8]; after treatment): undetectable | remission ([8]; in vivo): durable complete remissions | began to recover neutrophils ([8]; one patient): ≤ 9 days | need for red cell transfusions ([8]; one patient): did not require red cell transfusions | platelet transfusions received ([8]; one patient): 2 | complete remission (normal untransfused hemoglobin for age and sex) ([9]; 9 patients): 6 patients | median time to a neutrophil count of 500 per μL ([9]; 9 patients): 16 days | median time to platelet transfusion independence ([9]; 9 patients): 15 days | partial remission (hemoglobin >10.0 g/dl without support of transfusions) ([9]; 9 patients): 3 patients | responded and became transfusion independent ([9]; 9 patients): All patients | patients able to discontinue steroids ([9]; in vivo): 7 of the 9 | relapses ([9]; median follow-up of 15 (range 4-29) months): no relapses | marked reduction in anti-HLA antibody titer ([10]; after treatment): All four responders | complete remission of the SAA ([10]; five patients with HLA-specific antibodies): four of these five | anti-HLA antibody completely eradicated ([10]; of four responders): three | markedly improved, and returned to full activity [11]: All of these patients
